From ChEMBL document CHEMBL1773043, “Platensimycin and platencin congeners from Streptomyces platensis” (J Nat Prod, 2011)
Activity calls are given as the source filed them. The calls are words filed in the database; no cut-off is given here.

Key:
Staphylococcus aureus [1] = test: Antibacterial activity against Staphylococcus aureus at 64 ug/ml after 20 hrs; format: functional, organism-based
Enterococcus faecalis = test: Antibacterial activity against Enterococcus faecalis at 64 ug/ml after 20 hrs; format: functional, organism-based
Staphylococcus aureus [2] = test: Antibacterial activity against Staphylococcus aureus RN450 expressing S1-1941 plasmid carrying antisense FabF2p RNA assessed as 5 mm differential zone clearance measured as minimum concentration after 18 hrs; format: functional
Escherichia coli = test: Antibacterial activity against Escherichia coli at 64 ug/ml after 20 hrs; format: functional, organism-based
Haemophilus influenzae = test: Antibacterial activity against Haemophilus influenzae at 64 ug/ml after 20 hrs; format: functional, organism-based
[3] = target: T1, 3-oxoacyl-[acyl-carrier-protein] synthase 2 (Staphylococcus aureus, UniProt Q5TKS0); test: (§1) Inhibition of Staphylococcus aureus […] assessed as [2-14C]-malonyl CoA incorporation after 90 mins by cell free-based scintillation counting
T1 sequence (Q5TKS0 whole entry): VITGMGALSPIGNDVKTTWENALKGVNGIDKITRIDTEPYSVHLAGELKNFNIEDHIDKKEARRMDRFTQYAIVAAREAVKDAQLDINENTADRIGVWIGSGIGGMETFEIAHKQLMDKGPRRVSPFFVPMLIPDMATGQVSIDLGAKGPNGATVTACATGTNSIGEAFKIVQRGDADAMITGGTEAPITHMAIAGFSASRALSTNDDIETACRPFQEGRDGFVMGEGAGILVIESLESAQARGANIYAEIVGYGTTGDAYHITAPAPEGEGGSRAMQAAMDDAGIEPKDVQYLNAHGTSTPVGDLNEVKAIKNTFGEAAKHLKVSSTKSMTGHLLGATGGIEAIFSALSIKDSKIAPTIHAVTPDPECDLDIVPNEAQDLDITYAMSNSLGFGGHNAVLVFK

Enterococcus faecium = test: Antibacterial activity against Enterococcus faecium at 64 ug/ml after 20 hrs; format: functional, organism-based
Streptococcus pneumoniae = test: Antibacterial activity against Streptococcus pneumoniae at 64 ug/ml after 20 hrs; format: functional, organism-based
[4] = target: T2, 3-oxoacyl-[acyl-carrier-protein] synthase 2 (Staphylococcus aureus) (UniProt Q5TKS0); test: as §1
T2 sequence (whole entry): T1 sequence (Q5TKS0 whole entry)

`C[C@]12O[C@H]3CC1C[C@@]1(C=C(O)C(=O)[C@@](C)(CCC(=O)Nc4c(O)ccc(C(=O)O)c4O)C31)C2O` (some centres undefined) was tested, and the Activity (Staphylococcus aureus [1]) was “inactive”, the Activity (Enterococcus faecalis) was “inactive” and the Activity (Staphylococcus aureus [2]) was less than 20 µg/mL. For the same molecule, the Activity (Escherichia coli) was “inactive”, the Activity (Haemophilus influenzae) was “inactive” and the IC50 [3] was 33.8 µM. For the same molecule, the Activity (Enterococcus faecium) was “inactive” and the Activity (Streptococcus pneumoniae) was “inactive”.
For `COC(=O)c1ccc(O)c(NC(=O)CC[C@]2(C)C(=O)C=CC34CC5CC(OC5(CO)C3)C42)c1O` (some centres undefined) [PLATENSIMYCIN A4 METHYL ESTER], the Activity (Staphylococcus aureus [1]) was “inactive”, the Activity (Enterococcus faecalis) was “inactive” and the Activity (Staphylococcus aureus [2]) was 100 µg/mL. For the same molecule, the Activity (Escherichia coli) was “inactive”, the Activity (Haemophilus influenzae) was “inactive” and the inhibition [4] was “inactive”. For the same molecule, the Activity (Enterococcus faecium) was “inactive” and the Activity (Streptococcus pneumoniae) was “inactive”.
For `C/C(=C\CC[C@]1(C)C(=O)C=C[C@]23CC4C[C@H](O[C@]4(C)C2)C31)C(=O)N[C@@H](CCC(N)=O)C(=O)O` (some centres undefined), the Activity (Staphylococcus aureus [1]) was “inactive”, the Activity (Enterococcus faecalis) was “inactive” and the Activity (Escherichia coli) was “inactive”. For the same molecule, the Activity (Haemophilus influenzae) was “inactive”, the inhibition [4] was “inactive” and the Activity (Enterococcus faecium) was “inactive”. For the same molecule, the Activity (Streptococcus pneumoniae) was “inactive”.
For `COC(=O)c1ccc(O)c(NC(=O)CC[C@]2(C)C(=O)C[C@@H](O)[C@]34CC5C[C@H](O[C@]5(C)C3)C42)c1O` (some centres undefined), the Activity (Staphylococcus aureus [1]) was “inactive”, the Activity (Enterococcus faecalis) was “inactive” and the Activity (Escherichia coli) was “inactive”. For the same molecule, the Activity (Haemophilus influenzae) was “inactive”, the inhibition [4] was “inactive” and the Activity (Enterococcus faecium) was “inactive”. The Activity (Streptococcus pneumoniae) was “inactive”.
With `C=C1C2CCC3(C=CC(=O)[C@@](C)(CCC(=O)Nc4c(O)ccc(C(=O)O)c4O)C3C2)[C@H]1O` (some centres undefined) the Activity (Staphylococcus aureus [1]) was “inactive”, the Activity (Enterococcus faecalis) was “inactive” and the Activity (Escherichia coli) was “inactive”. For the same molecule, the Activity (Haemophilus influenzae) was “inactive”, the inhibition [4] was “inactive” and the Activity (Enterococcus faecium) was “inactive”. For the same molecule, the Activity (Streptococcus pneumoniae) was “inactive”.
With `C[C@@]12C[C@]34CC1C[C@H](O2)C3[C@](C)(CCC(=O)Nc1c(O)ccc(C(=O)O)c1O)C(=O)C[C@H]4O` (some centres undefined) the Activity (Staphylococcus aureus [1]) was “inactive”, the Activity (Enterococcus faecalis) was “inactive” and the Activity (Escherichia coli) was “inactive”. For the same molecule, the Activity (Haemophilus influenzae) was “inactive”, the inhibition [4] was “inactive” and the Activity (Enterococcus faecium) was “inactive”. The Activity (Streptococcus pneumoniae) was “inactive”.
`C[C@@]12C[C@@]34C=CC(=O)[C@@](C)(CCC(=O)O)C3[C@H](CC1C4)O2` (some centres undefined) was tested, and the Activity (Staphylococcus aureus [1]) was “inactive”, the Activity (Enterococcus faecalis) was “inactive” and the Activity (Escherichia coli) was “inactive”. For the same molecule, the Activity (Haemophilus influenzae) was “inactive”, the inhibition [4] was “inactive” and the Activity (Enterococcus faecium) was “inactive”. For the same molecule, the Activity (Streptococcus pneumoniae) was “inactive”.
With `C[C@@]1(CCC(=O)Nc2c(O)ccc(C(=O)O)c2O)C(=O)C=CC23CCC(CC21)[C@@](O)(CO)C3` (some centres undefined) the Activity (Staphylococcus aureus [1]) was “inactive”, the Activity (Enterococcus faecalis) was “inactive” and the Activity (Escherichia coli) was “inactive”. For the same molecule, the Activity (Haemophilus influenzae) was “inactive”, the inhibition [4] was “inactive” and the Activity (Enterococcus faecium) was “inactive”. For the same molecule, the Activity (Streptococcus pneumoniae) was “inactive”.
In the case of `COC(=O)CC[C@]1(C)C(=O)C=C[C@]23CC4C[C@H](O[C@]4(C)[C@@H]2O)C13` (some centres undefined), the Activity (Staphylococcus aureus [1]) is reported as “inactive”, the Activity (Enterococcus faecalis) is reported as “inactive” and the Activity (Escherichia coli) is reported as “inactive”. For the same molecule, the Activity (Haemophilus influenzae) was “inactive”, the inhibition [4] was “inactive” and the Activity (Enterococcus faecium) was “inactive”. The Activity (Streptococcus pneumoniae) was “inactive”.
With `COCC(O)COc1ccc(C(C)(C)c2ccc(OCC(O)CO)cc2)cc1` (centres undefined) the Activity (Staphylococcus aureus [1]) was “inactive”, the Activity (Enterococcus faecalis) was “inactive” and the Activity (Escherichia coli) was “inactive”. For the same molecule, the Activity (Haemophilus influenzae) was “inactive”, the inhibition [4] was “inactive” and the Activity (Enterococcus faecium) was “inactive”. The Activity (Streptococcus pneumoniae) was “inactive”.
`CC12CC34C=CC(=O)[C@@](C)(CCC(=O)Nc5c(O)ccc(C(=O)O)c5O)C3C(C[C@]1(O)C4)O2` (some centres undefined) was tested, and the Activity (Staphylococcus aureus [1]) was “inactive”, the Activity (Enterococcus faecalis) was “inactive” and the Activity (Escherichia coli) was “inactive”. For the same molecule, the Activity (Haemophilus influenzae) was “inactive”, the inhibition [4] was “inactive” and the Activity (Enterococcus faecium) was “inactive”. The Activity (Streptococcus pneumoniae) was “inactive”.
